Data set [1] is described as follows: Inhibition of PTP-Meg2 (unknown origin). More on the design: species or system Homo sapiens.
Data set [2] addresses Tyrosine-protein phosphatase non-receptor type 7 (Homo sapiens, UniProt P35236). Put plainly: Inhibition of HePTP (unknown origin).
The target of data set [3] is Tyrosine-protein phosphatase non-receptor type 22 (Homo sapiens, UniProt Q9Y2R2). The experiment in a line: Inhibition of LYP (unknown origin).
In data set [4] the target is Tyrosine-protein phosphatase non-receptor type 6 (Homo sapiens, UniProt P29350). The experiment in a line: Inhibition of SHP1 (unknown origin).
Data set [5] concerns the target Receptor-type tyrosine-protein phosphatase alpha (Homo sapiens, UniProt P18433). The experiment in a line: Inhibition of PTPalpha (unknown origin).
The target of data set [6] is Receptor-type tyrosine-protein phosphatase beta (Homo sapiens, UniProt P23467). The experiment in a line: Inhibition of PTPbeta (unknown origin).
In data set [7] the target is Receptor-type tyrosine-protein phosphatase epsilon (Homo sapiens, UniProt P23469). Put plainly: Inhibition of PTPepsilon (unknown origin).
The target of data set [8] is RNA polymerase II subunit A C-terminal domain phosphatase SSU72 (Homo sapiens, UniProt Q9NP77). Put plainly: Inhibition of SSU72 (unknown origin).
Data set [9] can be described thus: Aqueous solubility of compound at pH 6 by HPLC analysis. It counts as physicochemical. The following applies: buffer.
A short description of data set [10]: Metabolic stability in human hepatic microsome at 4 uM measured after 30 mins by LC-MS analysis. It counts as ADME. The following applies: liver microsomes, read-out: Stability. A general note: Microsomes from liver hold many membrane-bound enzymes, among them those of drug oxidation.
The nature of data set [11]: Metabolic stability in mouse hepatic microsome at 4 uM measured after 30 mins by LC-MS analysis. In kind it is ADME. The following applies: liver microsomes, read-out: Stability.
A short description of data set [12]: Metabolic stability in dog hepatic microsome at 4 uM measured after 30 mins by LC-MS analysis. It counts as ADME, Canis lupus familiaris. The following applies: liver microsomes, read-out: Stability.
Data set [13] can be described thus: Plasma protein binding in mouse assessed as unbound fraction measured after 4.5 hrs by LC-MS/MS analysis. In kind it is ADME, cell-free.
The nature of data set [14]: AUC(0 to 8 hrs) in CD-1 mouse plasma at 10 mg/kg, po measured after 8 hrs by LC-MS/MS analysis. In kind it is ADME, organism-based. More on the design: dose 10 mg/kg, time 8 hrs, route po. The following applies: in vivo.
Data set [15] is described as follows: AUC(0 to 8 hrs) in CD-1 mouse plasma at 2 mg/kg, iv measured after 8 hrs by LC-MS/MS analysis. It counts as ADME, organism-based. More on the design: dose 2 mg/kg, time 8 hrs, route iv. Conditions: in vivo.
Data set [16] in a line: Unbound Cmax in plasma of CD-1 mouse at 2 mg/kg, iv measured after 8 hrs by LC-MS/MS analysis. The following applies: in vivo. It counts as ADME, organism-based.
A short description of data set [17]: Cmax in Sprague-Dawley rat plasma at 3 mg/kg, po measured after 24 hrs by LC-MS/MS analysis. Conditions: in vivo. In kind it is ADME, organism-based. Further details: time 24 hrs, dose 3 mg/kg, route po.
Data set [18] in a line: Unbound Cmax in plasma of Sprague-Dawley rat at 3 mg/kg, po measured after 24 hrs by LC-MS/MS analysis. In kind it is ADME, organism-based. The following applies: in vivo.

≈ marks a conversion by molar mass, not a printed value.

Tyrosine-protein phosphatase non-receptor type 22, sequence (Q9Y2R2 whole entry): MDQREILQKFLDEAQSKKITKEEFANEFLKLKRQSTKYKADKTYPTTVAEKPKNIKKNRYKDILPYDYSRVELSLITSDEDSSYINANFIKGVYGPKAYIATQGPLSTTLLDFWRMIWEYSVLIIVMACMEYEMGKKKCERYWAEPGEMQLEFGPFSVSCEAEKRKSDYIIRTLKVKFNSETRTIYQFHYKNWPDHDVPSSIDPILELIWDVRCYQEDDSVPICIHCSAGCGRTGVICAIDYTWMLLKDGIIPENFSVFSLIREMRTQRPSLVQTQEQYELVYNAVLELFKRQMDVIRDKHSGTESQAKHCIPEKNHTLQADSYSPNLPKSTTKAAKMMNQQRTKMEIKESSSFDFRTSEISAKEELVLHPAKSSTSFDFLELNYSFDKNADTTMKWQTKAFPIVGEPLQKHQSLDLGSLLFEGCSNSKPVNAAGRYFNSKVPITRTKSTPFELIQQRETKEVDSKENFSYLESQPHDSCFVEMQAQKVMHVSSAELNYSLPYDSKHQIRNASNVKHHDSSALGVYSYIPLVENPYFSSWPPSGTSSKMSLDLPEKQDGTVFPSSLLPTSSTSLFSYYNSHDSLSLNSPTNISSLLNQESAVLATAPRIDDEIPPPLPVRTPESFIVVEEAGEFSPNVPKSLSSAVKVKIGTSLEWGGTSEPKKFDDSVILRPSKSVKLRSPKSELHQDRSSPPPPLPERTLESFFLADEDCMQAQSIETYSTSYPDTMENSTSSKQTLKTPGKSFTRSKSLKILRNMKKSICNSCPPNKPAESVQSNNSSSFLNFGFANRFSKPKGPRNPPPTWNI
Tyrosine-protein phosphatase non-receptor type 6, sequence (P29350 whole entry): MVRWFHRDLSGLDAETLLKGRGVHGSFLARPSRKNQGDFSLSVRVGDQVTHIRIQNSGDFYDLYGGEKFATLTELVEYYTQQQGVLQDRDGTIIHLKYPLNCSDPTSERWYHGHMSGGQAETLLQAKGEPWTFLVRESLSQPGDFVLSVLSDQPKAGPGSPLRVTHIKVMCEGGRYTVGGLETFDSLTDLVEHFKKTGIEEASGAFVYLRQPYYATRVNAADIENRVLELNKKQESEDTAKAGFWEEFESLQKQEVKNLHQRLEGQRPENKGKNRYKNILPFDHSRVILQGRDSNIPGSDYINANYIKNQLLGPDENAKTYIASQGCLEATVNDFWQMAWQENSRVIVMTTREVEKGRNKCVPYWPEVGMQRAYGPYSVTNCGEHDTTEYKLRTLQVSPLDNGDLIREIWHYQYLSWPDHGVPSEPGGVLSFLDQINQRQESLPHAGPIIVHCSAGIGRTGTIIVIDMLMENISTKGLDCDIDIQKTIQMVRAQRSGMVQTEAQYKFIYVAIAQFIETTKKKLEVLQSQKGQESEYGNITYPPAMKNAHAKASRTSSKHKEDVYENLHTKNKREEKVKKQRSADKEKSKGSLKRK
Receptor-type tyrosine-protein phosphatase alpha, sequence (P18433 whole entry): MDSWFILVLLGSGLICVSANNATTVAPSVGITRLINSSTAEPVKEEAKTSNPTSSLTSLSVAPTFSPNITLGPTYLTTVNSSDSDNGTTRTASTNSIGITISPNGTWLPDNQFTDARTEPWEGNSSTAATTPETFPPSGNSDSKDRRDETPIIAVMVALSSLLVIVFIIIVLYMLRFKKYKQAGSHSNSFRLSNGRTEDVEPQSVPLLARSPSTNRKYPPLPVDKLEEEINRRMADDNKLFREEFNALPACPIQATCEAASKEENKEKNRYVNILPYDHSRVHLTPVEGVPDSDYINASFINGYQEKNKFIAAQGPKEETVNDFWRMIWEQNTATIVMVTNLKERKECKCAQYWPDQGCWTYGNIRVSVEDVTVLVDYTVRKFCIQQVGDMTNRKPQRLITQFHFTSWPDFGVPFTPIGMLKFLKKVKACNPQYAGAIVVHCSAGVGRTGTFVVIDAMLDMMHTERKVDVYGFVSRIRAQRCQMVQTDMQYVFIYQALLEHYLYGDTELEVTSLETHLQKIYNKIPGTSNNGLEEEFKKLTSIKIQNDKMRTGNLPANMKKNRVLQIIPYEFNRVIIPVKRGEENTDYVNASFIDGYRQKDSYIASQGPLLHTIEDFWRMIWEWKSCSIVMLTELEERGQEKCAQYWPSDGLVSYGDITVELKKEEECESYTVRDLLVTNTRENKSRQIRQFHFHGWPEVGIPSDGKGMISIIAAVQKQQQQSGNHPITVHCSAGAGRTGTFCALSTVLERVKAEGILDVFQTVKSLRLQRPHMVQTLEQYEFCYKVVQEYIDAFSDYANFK
RNA polymerase II subunit A C-terminal domain phosphatase SSU72, sequence (Q9NP77 whole entry, the tested form may be a part): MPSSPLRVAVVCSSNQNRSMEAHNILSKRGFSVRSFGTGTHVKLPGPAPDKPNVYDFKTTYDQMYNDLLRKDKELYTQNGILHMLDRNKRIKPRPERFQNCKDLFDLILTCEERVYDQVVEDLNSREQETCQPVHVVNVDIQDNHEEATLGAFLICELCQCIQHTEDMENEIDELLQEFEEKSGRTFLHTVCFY
Receptor-type tyrosine-protein phosphatase beta, sequence (P23467 whole entry): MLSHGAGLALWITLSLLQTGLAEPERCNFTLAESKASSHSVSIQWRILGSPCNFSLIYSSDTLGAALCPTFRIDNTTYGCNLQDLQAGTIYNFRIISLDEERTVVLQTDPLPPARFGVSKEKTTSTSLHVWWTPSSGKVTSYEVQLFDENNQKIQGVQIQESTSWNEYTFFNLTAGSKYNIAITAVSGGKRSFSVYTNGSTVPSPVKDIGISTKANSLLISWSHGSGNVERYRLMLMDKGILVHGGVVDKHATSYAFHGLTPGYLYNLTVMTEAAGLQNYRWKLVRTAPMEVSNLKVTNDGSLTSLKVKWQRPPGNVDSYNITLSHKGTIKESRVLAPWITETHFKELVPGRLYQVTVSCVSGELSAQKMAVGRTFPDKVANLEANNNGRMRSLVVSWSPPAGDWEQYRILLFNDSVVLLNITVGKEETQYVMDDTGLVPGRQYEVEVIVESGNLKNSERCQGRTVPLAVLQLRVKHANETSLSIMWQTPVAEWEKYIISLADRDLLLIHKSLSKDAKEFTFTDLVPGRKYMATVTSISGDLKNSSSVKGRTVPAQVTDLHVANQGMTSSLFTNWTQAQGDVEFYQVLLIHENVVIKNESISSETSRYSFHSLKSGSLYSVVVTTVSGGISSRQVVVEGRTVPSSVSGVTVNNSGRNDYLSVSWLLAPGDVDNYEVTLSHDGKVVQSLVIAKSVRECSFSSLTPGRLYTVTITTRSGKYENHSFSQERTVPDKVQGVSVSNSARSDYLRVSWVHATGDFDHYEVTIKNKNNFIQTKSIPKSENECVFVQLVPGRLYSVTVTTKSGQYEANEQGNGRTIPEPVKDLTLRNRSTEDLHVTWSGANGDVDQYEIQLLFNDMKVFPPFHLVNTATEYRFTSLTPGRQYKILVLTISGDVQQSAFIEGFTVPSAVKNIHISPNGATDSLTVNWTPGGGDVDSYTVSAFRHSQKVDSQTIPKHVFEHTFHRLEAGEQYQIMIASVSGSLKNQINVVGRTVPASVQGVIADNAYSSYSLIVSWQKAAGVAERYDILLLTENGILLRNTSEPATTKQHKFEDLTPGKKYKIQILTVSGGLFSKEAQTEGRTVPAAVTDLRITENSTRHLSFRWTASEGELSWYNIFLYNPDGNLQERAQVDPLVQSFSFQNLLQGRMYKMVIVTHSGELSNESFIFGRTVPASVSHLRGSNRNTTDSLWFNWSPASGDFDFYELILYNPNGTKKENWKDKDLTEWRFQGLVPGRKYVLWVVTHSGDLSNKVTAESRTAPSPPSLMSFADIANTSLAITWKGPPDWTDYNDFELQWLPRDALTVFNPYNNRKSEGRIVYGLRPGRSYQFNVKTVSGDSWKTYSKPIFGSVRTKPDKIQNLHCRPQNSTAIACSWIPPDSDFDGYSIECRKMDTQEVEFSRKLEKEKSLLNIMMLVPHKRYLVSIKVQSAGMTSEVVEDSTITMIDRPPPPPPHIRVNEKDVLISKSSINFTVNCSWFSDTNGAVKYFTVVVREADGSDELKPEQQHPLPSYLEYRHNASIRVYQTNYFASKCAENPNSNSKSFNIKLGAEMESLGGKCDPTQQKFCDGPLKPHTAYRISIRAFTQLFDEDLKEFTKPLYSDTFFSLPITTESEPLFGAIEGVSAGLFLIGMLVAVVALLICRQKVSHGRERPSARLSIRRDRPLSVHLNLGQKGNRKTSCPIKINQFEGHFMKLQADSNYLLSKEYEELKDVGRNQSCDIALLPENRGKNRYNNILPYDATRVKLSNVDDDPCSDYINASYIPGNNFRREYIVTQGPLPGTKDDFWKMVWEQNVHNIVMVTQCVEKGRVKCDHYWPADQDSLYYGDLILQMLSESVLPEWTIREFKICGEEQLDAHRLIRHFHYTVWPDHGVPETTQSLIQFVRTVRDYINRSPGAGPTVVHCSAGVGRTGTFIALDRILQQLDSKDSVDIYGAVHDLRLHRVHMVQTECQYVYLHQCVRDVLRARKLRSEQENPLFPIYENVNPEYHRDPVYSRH
Receptor-type tyrosine-protein phosphatase epsilon, sequence (P23469 whole entry, the tested form may be a part): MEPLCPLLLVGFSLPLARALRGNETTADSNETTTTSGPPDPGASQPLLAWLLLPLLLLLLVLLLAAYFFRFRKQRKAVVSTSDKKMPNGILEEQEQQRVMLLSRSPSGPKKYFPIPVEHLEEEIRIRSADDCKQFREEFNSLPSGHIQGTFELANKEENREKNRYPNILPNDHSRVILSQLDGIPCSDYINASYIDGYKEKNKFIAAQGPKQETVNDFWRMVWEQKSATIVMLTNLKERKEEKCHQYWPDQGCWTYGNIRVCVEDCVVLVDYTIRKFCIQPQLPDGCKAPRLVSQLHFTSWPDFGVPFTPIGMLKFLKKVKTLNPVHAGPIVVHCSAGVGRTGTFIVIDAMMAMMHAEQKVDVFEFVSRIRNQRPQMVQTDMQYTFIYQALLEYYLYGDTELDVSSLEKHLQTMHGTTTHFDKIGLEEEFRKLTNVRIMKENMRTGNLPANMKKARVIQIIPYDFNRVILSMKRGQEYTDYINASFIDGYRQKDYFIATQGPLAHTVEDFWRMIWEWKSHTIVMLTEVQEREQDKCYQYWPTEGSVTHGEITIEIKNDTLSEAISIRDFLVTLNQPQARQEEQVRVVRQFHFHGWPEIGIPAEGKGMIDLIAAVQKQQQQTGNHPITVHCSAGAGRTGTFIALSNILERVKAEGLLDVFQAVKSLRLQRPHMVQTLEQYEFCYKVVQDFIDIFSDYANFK

Broadly, the IC50 is the concentration at which inhibition is half-maximal. Higher therefore signals lower potency. For orientation: solubility means the dissolved amount per volume that the medium holds. Read a high solubility as much dissolved substance. Usually AUC stands for the area under the concentration-time curve, a measure of exposure. Lower therefore signals low exposure. A word on the Cmax: it is the maximum level reached in the sampled fluid or tissue. As for `Cc1c(Br)cc(NC(=O)NS(=O)(=O)O)cc1Br`, the IC50 in data set [1], in data set [2], in data set [3], in [4], in data set [5] and in data set [6] was above 10 µM in each case. For the same compound, the IC50 in data set [7] and in data set [8] was above 10 µM each time. The compound further yielded a solubility in data set [9] of 9.5 µg/mL (≈ 24.5 µM). Besides, the remaining at 0.5 h, 4 µM is 21% in data set [10], 30% in data set [11] and 38% in data set [12]. In addition, the Fu in data set [13] stood at 0.024. Besides, the AUC in data set [14] worked out at 37.3 µM·h; in [15], 15.1 µM·h. Besides, the fCmax in [16] came to 322 nM; in data set [18] it was 21 nM. In data set [17], the Cmax was 877 nM.

For the origin of these results see ChEMBL document CHEMBL5214960 (J Med Chem, 2022).
